Results reported in patent publication US20260308186A1, “STAT DEGRADERS AND USES THEREOF” (Recludix Pharma, Inc., priority 2023, published 2026).
pIC50: −log10 of the molar value. Like-named read-outs stand apart in the source and are kept apart here.

How the values were obtained:
STAT3 = target: T1, STAT3 (Homo sapiens, UniProt P40763); assay: STAT3 Fluorescence Polarization (FP) Assay; format: binding
T1 construct: Recombinant STAT3 protein (STAT3(G127-1722))
Protocol: STAT3 Fluorescence Polarization (FP) Assay
An FP assay was developed to determine IC50 values for test substances. Recombinant STAT3 protein (STAT3(G127-1722)) at 25 nM was combined with a fluorescently labeled, phosphotyrosine peptide probe (5-FAM-GpYLPQTV-NH2) at 2 nM in FP buffer (10 mM HEPES pH 7.4, 50 mM NaCl, 1 mM EDTA, 0.05% Tween 20.2 mM DTT). 50 μL of STAT3-probe mixture was added to serial diluted compounds in black, 96-well plates (Greiner BioOne 655076) to a final concentration of 1% DMSO. Reaction components were mixed, and FP was measured after 45-minute incubation at room temperature using a Tecan Spark multimode plate reader. FP signal (mP) was plotted against the log concentration of the test substances and IC50 values were calculated by nonlinear regression analysis using GraphPad Prism software. For STAT3 FP assay. A=≤100 nM; B=>100-1000 nM; C=>1-10 μM; and D=>10 μM.

STAT6 = target: T2, STAT6 (Homo sapiens, UniProt P42226); assay: STAT6 Fluorescence Polarization (FP) Assay; format: binding
T2 construct: Recombinant STAT6 protein (STAT6(W123-T658))
T2 sequence (P42226 123-658): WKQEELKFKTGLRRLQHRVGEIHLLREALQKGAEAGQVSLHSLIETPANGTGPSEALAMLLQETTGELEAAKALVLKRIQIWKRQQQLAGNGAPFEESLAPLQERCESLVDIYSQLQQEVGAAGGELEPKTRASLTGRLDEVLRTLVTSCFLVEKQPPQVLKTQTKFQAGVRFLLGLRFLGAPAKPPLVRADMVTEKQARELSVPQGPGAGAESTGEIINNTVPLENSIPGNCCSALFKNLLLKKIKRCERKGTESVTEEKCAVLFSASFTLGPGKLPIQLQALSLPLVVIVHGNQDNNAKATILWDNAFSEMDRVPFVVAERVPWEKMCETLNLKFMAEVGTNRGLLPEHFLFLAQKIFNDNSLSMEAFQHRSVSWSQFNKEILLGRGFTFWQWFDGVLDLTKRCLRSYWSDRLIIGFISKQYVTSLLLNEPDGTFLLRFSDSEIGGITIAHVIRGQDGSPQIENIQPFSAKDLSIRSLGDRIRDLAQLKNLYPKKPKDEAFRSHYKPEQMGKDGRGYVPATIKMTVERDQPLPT
Protocol: STAT6 Fluorescence Polarization (FP) Assay
An FP assay was developed to determine IC50 values for test substances. Recombinant STAT6 protein (STAT6(W123-T658)) at 250 nM was combined with a fluorescently labeled, phosphotyrosine peptide probe (5-FAM-Ap[…]-NH2) at 2 nM in FP buffer (10 mM HEPES pH 7.4, 50 mM NaCl, 1 mM EDTA, 0.05% Tween 20, 2 mM DTT), 50 μL of STAT6-probe mixture was added to serial diluted compounds in black, 96-well plates (Greiner BioOne 655076) to a final concentration of 1% DMSO. Reaction components were mixed, and FP was measured after 45-minute incubation at room temperature using a Tecan Spark multimode plate reader. FP signal (mP) was plotted against the log concentration of the test substances and IC50 values were calculated by nonlinear regression analysis using GraphPad Prism software. For STAT6 FP assay. A=≤300 nM; B=>300-3000 nM; C=>3-30 μM; and D=>30 μM.

pSTAT6 = target: T3, pSTAT6 (Homo sapiens, UniProt P42226); assay: MSD-pSTAT-PBMC Assay, pSTAT6 (IL-4 stimulated PBMC); format: cell-based
T3 construct: pY641-STAT6 MSD read-out
T3 sequence (P42226 1-847): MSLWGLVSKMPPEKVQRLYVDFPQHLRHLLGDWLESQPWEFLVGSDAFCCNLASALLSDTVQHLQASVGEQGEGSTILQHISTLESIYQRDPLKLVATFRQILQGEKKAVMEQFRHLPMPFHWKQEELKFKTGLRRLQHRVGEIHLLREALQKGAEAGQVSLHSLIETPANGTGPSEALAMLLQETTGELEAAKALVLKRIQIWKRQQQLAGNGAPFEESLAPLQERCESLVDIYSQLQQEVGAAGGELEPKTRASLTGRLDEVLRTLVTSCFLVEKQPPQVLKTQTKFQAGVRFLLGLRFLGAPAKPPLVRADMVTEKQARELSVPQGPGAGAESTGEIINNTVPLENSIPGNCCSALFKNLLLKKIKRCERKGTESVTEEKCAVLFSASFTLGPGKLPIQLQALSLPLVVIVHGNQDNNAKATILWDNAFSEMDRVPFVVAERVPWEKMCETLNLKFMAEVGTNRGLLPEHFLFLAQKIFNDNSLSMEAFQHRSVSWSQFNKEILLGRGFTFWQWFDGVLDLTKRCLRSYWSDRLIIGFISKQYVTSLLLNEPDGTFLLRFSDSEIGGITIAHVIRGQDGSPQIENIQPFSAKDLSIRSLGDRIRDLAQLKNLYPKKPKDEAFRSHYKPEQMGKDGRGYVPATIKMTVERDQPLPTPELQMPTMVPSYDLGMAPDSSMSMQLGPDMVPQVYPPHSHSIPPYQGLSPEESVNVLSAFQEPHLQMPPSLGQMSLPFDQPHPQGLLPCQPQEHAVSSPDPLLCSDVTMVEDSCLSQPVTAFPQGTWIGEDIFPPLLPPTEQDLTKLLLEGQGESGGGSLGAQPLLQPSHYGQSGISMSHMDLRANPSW
Excerpt: Cryopreserved Peripheral Blood Mononuclear Cells (PBMC) are from AllCells. Recombinant Human IL-4 and IL-6 are from Peprotech. Mouse monoclonal anti-STAT3 antibody, rabbit monoclonal anti-pY705-STAT3 antibody, rabbit monoclonal Anti-pY641-STAT6 antibody, and lysis buffer are from Cell Signaling Technology (CST). Mouse monoclonal anti-STAT6 antibody is from BioLegend. Assay plates, blocker, and anti-rabbit secondary antibody are from Meso Scale Discovery (MSD).
Cryopreserved PBMCs were thawed out and allowed to recover overnight in IMDM+10% heat-inactivated FBS prior to plating 50,000 (STAT3) or 25,000 (STAT6) cells per well in 96-well U-bottom tissue culture plates. Cells were treated with compound for 3 hrs. then stimulated with 10 ng/mL IL-6 (STAT3) or 1 ng/mL IL-4 (STAT6) for 10 min. Cells were then spun down and washed with ice-cold PBS prior to lysing the cell pellet with 1× lysis buffer (CST) with 1×HALT protease and phosphatase inhibitor cocktail (Thermo). Lysates were transferred to and incubated overnight at 4° C. with shaking in QuickPlex 96-well high bind assay plates (MSD) pre-coated overnight with 30 μL per well of 0.6 μg/mL mouse monoclonal anti-STAT3 antibody (STAT3) or 2 μg/mL mouse monoclonal anti-STAT6 antibody (STAT6) in 1×PBS, and pre-blocked for 1 hour with 3% Blocker-A (MSD). Captured protein in the assay plates were then washed and probed with 25 μL per well of 0.25 μg/ml rabbit monoclonal anti-pY705-STAT3 antibody (STAT3) or 0.18 μg/ml rabbit monoclonal Anti-pY641-STAT6 antibody (STAT6) in 1% Blocker-A for 1 hour at room temperature with shaking, then washed and probed with 25 ul per well of 1 ug/ml Sulfo-TAG Labeled Goat Anti-Rabbit Antibody (MSD) in 1% Blocker-A for 1 hour at room temperature with shaking. Assay plates were then washed and 150 μL of 1× Read Buffer-T (MSD) was added to each well prior to reading on an SQ120 MSD Plate Reader. Assay signal from each sample was subtracted by the signal from unstimulated control wells and normalized to DMSO control wells. IC50 values were calculated using Graph Pad Prism Dose-Response Nonlinear Regression with variable slope. For both pSTAT3 and pSTAT6 A=≤100 nM; B=>100-1000 nM; C=>1000-3000 nM; and D=>3 μM.

[1] = read-out: pSTAT6 IC50, compound 3 hrs, then 1 ng/mL IL-4 for 10 min, pY641-STAT6
[2] = recombinant STAT3 25 nM, probe 5-FAM-GpYLPQTV-NH2 2 nM, 45 min, room temperature, read-out: STAT3 FP IC50
[3] = recombinant STAT6(W123-T658) 250 nM, probe 5-FAM-Ap[…]-NH2 2 nM, 45 min, room temperature, read-out: STAT6 FP IC50
[4] = compound 3 hrs, then 1 ng/mL IL-4 for 10 min, pY641-STAT6, read-out: pSTAT6 IC50

T1 sequence (P40763 127-722 limits assumed): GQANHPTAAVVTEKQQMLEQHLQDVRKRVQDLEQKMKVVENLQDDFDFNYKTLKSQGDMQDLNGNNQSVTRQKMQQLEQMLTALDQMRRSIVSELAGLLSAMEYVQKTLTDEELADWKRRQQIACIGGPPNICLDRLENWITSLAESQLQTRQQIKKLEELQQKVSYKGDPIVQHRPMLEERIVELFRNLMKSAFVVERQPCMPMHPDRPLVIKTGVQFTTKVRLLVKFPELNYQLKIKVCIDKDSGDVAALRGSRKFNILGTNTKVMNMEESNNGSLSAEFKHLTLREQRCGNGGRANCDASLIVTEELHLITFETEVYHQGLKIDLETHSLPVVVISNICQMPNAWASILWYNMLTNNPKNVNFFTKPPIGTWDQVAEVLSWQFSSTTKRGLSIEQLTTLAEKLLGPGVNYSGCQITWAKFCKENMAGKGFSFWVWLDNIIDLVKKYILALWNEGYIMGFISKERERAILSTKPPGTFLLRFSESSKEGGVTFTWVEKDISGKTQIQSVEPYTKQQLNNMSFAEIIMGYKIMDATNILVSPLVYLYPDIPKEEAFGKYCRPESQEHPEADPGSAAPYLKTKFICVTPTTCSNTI

pIC50 (STAT3; [2]) | pIC50 (STAT6; [3]) | pIC50 (pSTAT6; [4]) | SMILES | pIC50 (STAT3) | pIC50 (STAT6) | pIC50 (pSTAT6; [1])
 |  |  | Cc1ccc2[nH]nc(C(=O)N3CC[C@H]4CC[C@@H](C(=O)N(C)CCCCCCC#Cc5cccc6c5CN(C5CCC(=O)NC5=O)C6=O)N4C(=O)[C@@H](NC(=O)c4ccc5ccc(C(F)(F)P(=O)(O)O)cc5c4)C3)c2c1 (stereo partly drawn) [Compound 11, ((7-(((5S,8S,10aR)-8-((8-(2-(2,6-dioxopiperidin-3-yl)-1-oxoisoindolin-4-yl)oct-7-yn-1-yl)(methyl)carbamoyl)-3-(5-methyl-1H-indazole-3-carbonyl)-6-oxodecahydropyrrolo[1,2-a][1,5]diazocin-5-yl)carbamoyl)naphthalen-2-yl)difluoromethyl)phosphonic acid] | 5.00 to 6.00 | > 6.52 | 6.00 to 7.00
 |  |  | Cc1ccc2[nH]nc(C(=O)N3CC[C@H]4CC[C@@H](C(=O)N(C)CCCCCCC#Cc5cccc6c5CN(C5CCC(=O)NC5=O)C6=O)N4C(=O)[C@@H](NC(=O)c4ccc5ccc(C(F)P(=O)(O)O)cc5c4)C3)c2c1 (stereo partly drawn) [Compound 14, ((7-(((5S,8S,10aR)-8-((8-(2-(2,6-dioxopiperidin-3-yl)-1-oxoisoindolin-4-yl)oct-7-yn-1-yl)(methyl)carbamoyl)-3-(5-methyl-1H-indazole-3-carbonyl)-6-oxodecahydropyrrolo[1,2-a][1,5]diazocin-5-yl)carbamoyl)naphthalen-2-yl)fluoromethyl)phosphonic acid] | < 5.00 | 5.52 to 6.52 | < 5.52
 |  |  | Cc1ccc2[nH]nc(C(=O)N3CC[C@H]4CC[C@@H](C(=O)N(C)CCCCCCC#Cc5cccc6c5CN(C5CCC(=O)NC5=O)C6=O)N4C(=O)[C@@H](NC(=O)c4ccc5ccc(CP(=O)(O)O)cc5c4)C3)c2c1 (stereo partly drawn) [Compound 15, ((7-(((5S,8S,10aR)-8-((8-(2-(2,6-dioxopiperidin-3-yl)-1-oxoisoindolin-4-yl)oct-7-yn-1-yl)(methyl)carbamoyl)-3-(5-methyl-1H-indazole-3-carbonyl)-6-oxodecahydropyrrolo[1,2-a][1,5]diazocin-5-yl)carbamoyl)naphthalen-2-yl)methyl)phosphonic acid] | < 5.00 | 5.52 to 6.52 | < 5.52
< 5.00 | > 6.52 | 6.00 to 7.00 | Cc1ccc2onc(C(=O)N3CC[C@H]4CC[C@@H](C(=O)N(C)CCCCCCC#Cc5cccc6c5CN(C5CCC(=O)NC5=O)C6=O)N4C(=O)[C@@H](NC(=O)c4ccc5ccc(C(F)(F)P(=O)(O)O)cc5c4)C3)c2c1 (stereo partly drawn) [Compound 22, ((7-(((5S,8S,10aR)-8-((8-(2-(2,6-dioxopiperidin-3-yl)-1-oxoisoindolin-4-yl)oct-7-yn-1-yl)(methyl)carbamoyl)-3-(5-methylbenzo[d]isoxazole-3-carbonyl)-6-oxodecahydropyrrolo[1,2-a][1,5]diazocin-5-yl)carbamoyl)naphthalen-2-yl)difluoromethyl)phosphonic acid] |  |  | 
5.00 to 6.00 | > 6.52 | < 5.52 | Cc1ccc2onc(C(=O)N3CC[C@H]4CC[C@@H](C(=O)N(C)CC(=O)N[C@H](C(=O)N5C[C@H](O)C[C@H]5C(=O)N[C@@H](C)c5ccc(-c6scnc6C)cc5)C(C)(C)C)N4C(=O)[C@@H](NC(=O)c4ccc5ccc(C(F)(F)P(=O)(O)O)cc5c4)C3)c2c1 [Compound 27, (difluoro(7-(((5S,8S,10aR)-8-((2-(((S)-1-((2S,4R)-4-hydroxy-2-(((S)-1-(4-(4-methylthiazol-5-yl)phenyl)ethyl)carbamoyl)pyrrolidin-1-yl)-3,3-dimethyl-1-oxobutan-2-yl)amino)-2-oxoethyl)(methyl)carbamoyl)-3-(5-methylbenzo[d]isoxazole-3-carbonyl)-6-oxodecahydropyrrolo[1,2-a][1,5]diazocin-5-yl)carbamoyl)naphthalen-2-yl)methyl)phosphonic acid] |  |  | 
5.00 to 6.00 | > 6.52 | < 5.52 | Cc1ccc2onc(C(=O)N3CC[C@H]4CC[C@@H](C(=O)N(C)CCC#Cc5cccc6c5CN(C5CCC(=O)NC5=O)C6=O)N4C(=O)[C@@H](NC(=O)c4ccc5ccc(C(F)(F)P(=O)(O)O)cc5c4)C3)c2c1 (stereo partly drawn) [Compound 28, ((7-(((5S,8S,10aR)-8-((4-(2-(2,6-dioxopiperidin-3-yl)-1-oxoisoindolin-4-yl)but-3-yn-1-yl)(methyl)carbamoyl)-3-(5-methylbenzo[d]isoxazole-3-carbonyl)-6-oxodecahydropyrrolo[1,2-a][1,5]diazocin-5-yl)carbamoyl)naphthalen-2-yl)difluoromethyl)phosphonic acid] |  |  | 
